Where a name gives a salt, the structure may show the parent alone. Read-outs that look alike come from different tables or passages of the source. One block for each compound: values may come before it.
Tests used:
[1] = Percent complex determination, yttrium complexes (Sephadex C-25 cation exchange); format: physicochemical; details: for % Complex (10:1), Y: ligand/metal 10:1, pH 7.4
Description: Complexes were made by preparing a 0.0003M yttrium solution in water. (YCl3.6H2 O, 303.26 g/mole; Y(OAc)3, 12.1% H2 O). Radioactive YCl3 (Oakridge National Laboratories) was added to give the desired number of counts. Ten μl of ligand solution (at 0.03M) were added to 990 μl of the Y solution, giving a ligand-to-metal ratio of 1:1. (Ten times the amount of ligand solution was used for a 10:1 ligand to metal ratio.) The pH was then adjusted to 7.4 using microliter quantities of hydrochloric acid or sodium hydroxide. The solution was then tested for the amount of complexed yttrium using the cation exchange method given below.
(§1) A disposable 10 ml plastic (Biorad) column was filled with 1 to 2 ml of water-swelled Sephadex™ C-25 cation exchange resin. The water was pressure eluted to the top of the resin. Fifteen μl of the complex (or more if counts were low) were added to the top of the resin. This was followed by 2 ml of 4:1 (V:V) isotonic saline:conc. ammonium hydroxide solution as an eluent which was allowed to drip into a counting tube. This was also pressure eluted to the top of the resin. An additional 2 ml of the eluent were added and the column pressure eluted to remove all liquid. The dried resin was then placed in a third counting tube and the three tubes counted on a NaI well counter using a Canberra multichannel analyzer linked to a computer. The percent complex was determined by dividing the number of counts in the two elutions by the total counts in the elutions plus the column, all times 100. By this method, uncomplexed yttrium was retained on the column.

[2] = rat, in vivo, 120 min; for % Injected Dose in Liver: iv
[3] = In vivo biodistribution of chelates in rats (% dose in organs); details: rat, 2 hours after i.v. injection
[4] = Percent complex determination, samarium complexes (Sephadex C-25 cation exchange); format: physicochemical; details: for % Complex (10:1), Sm / % Complex, Sm: samarium; for % Complex (10:1), Sm: ligand/metal 10:1; for % Complex, Sm: ligand/metal ratio about 50:1 (** footnote)
Description: as §1, with “100.” for “100. By this method, uncomplexed yttrium was retained on the column.”
Percent complex determination was made in the same manner as for the yttrium complex.

[5] = Complex study: percent yttrium complex after addition of excess metal (lability); format: physicochemical
Description: as §1
The 1:1 complex of yttrium with 1-(p-aminobenzyl)diethylenetriaminepentaacetic acid (ABDTPA), a well known bifunctional chelant used in the literature, and with the ligand of Example 2 (Now Ex. XVI) and Example 12 (now Ex. XVII) were prepared using the techniques described earlier. Several 100 microliter aliquots were then withdrawn into separate centrifuge tubes. Excess metal was added such that the total volume change is minimized and the time noted. One-half hour after metal addition, the percent complex was determined by the Sephadex™ C-25 method and this was compared to the original amount of complex. The percent complex versus added metal gives an indication as to the lability of the ligand-metal complex. Results are given below and are compared to the EDTA-yttrium complex.

[6] = complexes with Sc-46, Y-91, La-140 and Sm-153; chelant to metal 5:1; cited from earlier work
[7] = patients with metastatic bone lesions; cited from earlier work
[8] = Inertness of samarium complex versus pH; format: physicochemical; details: Sm
Description: as §1
(§2) One portion was treated with 1-2 μl portions of 0.1N hydrochloric acid until the pH was lowered and the other portion was treated with 0.1N sodium hydroxide to bring the pH up. The complexes were allowed to set for 5-10 minutes at each pH change, then they were sampled to determine the percent complexation at that pH by the method described for Examples 16 through 33.
as §2, with “of 1.0N” for “of 0.1N”, “with 0.1N, 1.0N and 50 weight %” for “with 0.1N”, “for about 5” for “for 5-10”

[9] = metal/ligand molar ratio 500, one-half hour after metal addition
[10] = Sm complex, ligand/metal about 300:1 (Examples D and E)

% Complex (10:1), Y [1]: 99% | % Injected Dose in Liver [2]: 0.38%
Compound: Nc1ccc(O)c(C(C(=O)O)N(CCN(CC(=O)O)CC(=O)O)CC(=O)O)c1 (stereo not drawn) [Example 5, 2-[(2-{[BIS(CARBOXYMETHYL)]AMINO}ETHYL)(CARBOXYMETHYL)AMINO]-2-(5-AMINO-2- HYDROXYPHENYL)ETHANOIC ACID]

% Injected Dose in Liver [2]: 24%
Compound: Nc1ccc(O)c(C(NCCNC(C(=O)O)c2cc(N)ccc2O)C(=O)O)c1 (stereo not drawn) [Example X, ethylenediaminedi(2-hydroxy-5-aminophenyl)acetic acid, reference compound]

Compound: CC(=O)Nc1ccc(O)c(CN(CCN(CC(=O)O)Cc2cc(NC(C)=O)ccc2O)CC(=O)O)c1 [Example U, N,N'-DI(2-HYDROXY, 5-ACETAMIDOBENZYL)ETHYLENEDIAMINE-N,N'-DIACETIC ACID, reference compound]
% Injected Dose in Liver ([3]; Sm complex, comparative, ligand/metal ratio not stated): 12%

Compound: 2-[(2-[(2-[(2-{[BIS(CARBOXYMETHYL)]AMINO}ETHYL)(CARBOXYMETHYL)AMINO]ETHYL)(CARBOXYMETHYL)AMINO]ETHYL)(CARBOXYMETHYL)AMINO]-2-[5-ACETAMIDO-2-(CARBOXYMETHYLOXY)PHENYL]ETHANOIC ACID AND 2[(2-[(2-{[BIS(CARBOXYMETHYL)]AMINO}ETHYL)(CARBOXY-METHYL)AMINO]ETHYL)(2-{[BIS(CARBOXYMETHYL)]AMINO}-ETHYL)AMINO]-2-[5-ACETAMIDO-2-(CARBOXYMETHYLOXY)PHENYL]-ETHANOIC ACID [Example 9]
% Complex (10:1), Sm [4]: > 99% | % Injected Dose in Liver ([3]; Sm complex, ligand/metal 10:1): 2.8%

% Complex (10:1), Y [1]: 98% | % dose in the blood [2]: 0.57% | % dose in the bone [2]: 56.1% | % dose in the muscle [2]: 0.78% | % dose in the spleen [2]: 0.03% | % Injected Dose in Liver [2]: 0.87%
Compound: CC(=O)Nc1ccc(O)c(C(NCCN(CC(=O)O)CC(=O)O)C(=O)O)c1 (stereo not drawn) [Example 1, 2-[(2-{[bis(carboxymethyl)]amino}ethyl)amino]-2-(5-acetamido-2-hydroxyphenyl)ethanoic acid]

Compound: 2-[bis(2-{[(bis(carboxymethyl)]amino}ethyl)amino]-2-[5-acetamido-2-(carboxymethyloxy)phenyl]ethanoic acid and 2-[{2-[(2-{[bis(carboxymethyl)]amino}ethyl)(carboxymethyl)amino]ethyl}(carboxymethyl)amino]-2-[5-acetamido-2-(carboxymethyloxy)-phenyl]ethanoic acid [Example 6]
% Complex (10:1), Sm [4]: > 99% | % Injected Dose in Liver ([3]; Sm complex, ligand/metal 10:1): 0.38%

% Complex (10:1), Y [1]: 99% | % Complex, Y ([1]; ligand/metal ratio about 1:1 (* footnote)): 98%
Compound: CC(=O)Nc1cc(CN(CCN(CC(=O)O)CC(=O)O)CC(=O)O)c(O)c(CN(CCN(CC(=O)O)CC(=O)O)CC(=O)O)c1 [Example 11]

Compound: O=C(O)CN(CCN(CC(=O)O)CC(=O)O)CC(=O)O [EDTA, ethylenediaminetetraacetic acid]
% Complex ([5]; metal/ligand molar ratio 250, one-half hour after metal addition): 48% | % Complex [5, 9]: 16% | organ distribution of radioactivity [6]: high concentrations of radioactivity were observed in the liver, spleen, kidney, lung and bone | % Injected Dose in Liver ([3]; Sm complex, ligand/metal 5:1): 8.4% | % Injected Dose in Liver [3, 10]: 4.4%

Compound: O=C(O)CN(CC(=O)O)CC(=O)O [NTA, nitrilotri-acetic acid, reference compound]
organ distribution of radioactivity [6]: high concentrations of radioactivity were observed in the liver, spleen, kidney, lung and bone | % Injected Dose in Liver [3, 10]: 8.6%

Compound: [89Sr] [Strontium-89]
blood levels [7]: high blood levels | lesion to normal bone ratios [7]: low lesion to normal bone ratios

Compound: [Cl][Sm]([Cl])[Cl] [SmCl3, samarium chloride, reference compound]
% Injected Dose in Liver ([3]; samarium chloride in unchelated form): 39%

% Complex (10:1), Y [1]: 99% | % Injected Dose in Liver [2]: 0.37%
Compound: CC(=O)Nc1cc(CN(CCN(CC(=O)O)CC(=O)O)CC(=O)O)c(O)c(CN(CC(=O)O)CC(=O)O)c1 [Example 15, 2-({[BIS(CARBOXYMETHYL)]AMINO}METHYL)-6-{[({[BIS(CARBOXYMETHYL)]AMINO}ETHYL)(CARBOXYMETHYL)AMINO]METHYL}-4-(ACETAMIDO)PHENOL]

percent complexation, Sm ([4]; as prepared, pH adjusted to about 7): 96% | % Complex, Sm [4]: > 99% | % Complexed ([8]; pH 1, about 5 minutes): 91% | % Complexed ([8]; pH 2, about 5 minutes): 88% | % Complexed ([8]; pH 3, about 5 minutes): 92% | % Complexed ([8]; pH 5, about 5 minutes): 96% | % Complexed ([8]; pH 7, about 5 minutes): 96% | % Complexed ([8]; pH 9, about 5 minutes): 99% | % Complexed ([8]; pH 12, about 5 minutes): 98% | % Complexed ([8]; pH 13, about 5 minutes): 99%
Compound: Nc1ccc(OCC(=O)O)c(C(C(=O)O)N(CCN(CCN(CC(=O)O)CC(=O)O)CC(=O)O)CC(=O)O)c1 (stereo not drawn) [Example 8, 2-[{2-[(2-{[BIS(CARBOXYMETHYL)]-AMINO}ETHYL)(CARBOXYMETHYL)AMINO]ETHYL}(CARBOXYMETHYL)AMINO]-2-[5-AMINO-2-(CARBOXYMETHYLOXY)PHENYL]ETHANOIC ACID]

percent Sm complexed ([4]; as prepared, pH adjusted to about 7.5): 100% | % Complex, Sm [4]: 96% | % Complexed ([8]; pH 1, 5-10 minutes): 98% | % Complexed ([8]; pH 2, 5-10 minutes): 100% | % Complexed ([8]; pH 3, 5-10 minutes): 100% | % Complexed ([8]; pH 4, 5-10 minutes): 100% | % Complexed ([8]; pH 5, 5-10 minutes): 100% | % Complexed ([8]; pH 7, 5-10 minutes): 100% | % Complexed ([8]; pH 9, 5-10 minutes): 100% | % Complexed ([8]; pH 11, 5-10 minutes): 100% | % Complexed ([8]; pH 13, 5-10 minutes): 100%
Compound: 2-[BIS(2-{[(BIS(CARBOXYMETHYL)]AMINO}ETHYL)AMINO]-2-[5-AMINO-2-(CARBOXYMETHYLOXY)PHENYL]ETHANOIC ACID AND 2-[{2-[(2-{[BIS(CARBOXYMETHYL)]AMINO}ETHYL)(CARBOXYMETHYL)AMINO]ETHYL}(CARBOXYMETHYL)AMINO]-2-[5-AMINO-2-(CARBOXYMETHYLOXY)-PHENYL]ETHANOIC ACID [Example 7]

% Complex (10:1), Y [1]: > 99% | % Injected Dose in Liver [2]: 0.22%
Compound: Nc1ccc(OCC(=O)O)c(C(C(=O)O)N(CCN(CC(=O)O)CC(=O)O)CC(=O)O)c1 (stereo not drawn) [Example 3, 2-[(2-{[BIS(CARBOXYMETHYL)]AMINO}ETHYL)(CARBOXYMETHYL)AMINO]-2-[5-AMINO-2- (CARBOXYMETHLOXY)PHENYL]ETHANOIC ACID, PENTA SODIUM SALT]

% Complex (10:1), Y [1]: > 99% | % Complex (10:1), Sm [4]: > 99% | % Complex [5, 9]: 75% | % Injected Dose in Liver [2]: 0.22%
Compound: CC(=O)Nc1ccc(OCC(=O)O)c(C(C(=O)O)N(CCN(CC(=O)O)CC(=O)O)CC(=O)O)c1 (stereo not drawn) [Example 2, 2-[(2-{[bis(carboxymethyl)]amino}ethyl)(carboxymethyl)amino]-2-[5-acetamido-2-(carboxymethyloxy)phenyl]ethanoic acid]

% Complex (10:1), Y [1]: > 99% | % Injected Dose in Liver [2]: 1.4%
Compound: CC(=O)Nc1ccc(O)c(C(C(=O)O)N(CC#N)CCN(CC(=O)O)CC(=O)O)c1 (stereo not drawn) [Example 4, 2-[(2-{[bis(carboxymethyl)]amino}ethyl)(cyanomethyl)amino]-2-(5-acetamido-2-hydroxyphenyl)ethanoic acid]

— US5696239A (The Dow Chemical Company, priority 1995, dated 1997)
